Assays:
[1] = Stability study: storage in closed borosilicate glass vial, HPLC analysis; format: physicochemical
arterial thrombosis = assay: Rat arterial thrombosis model (ferric chloride, carotid artery); format: in vivo, male Wistar rats; settings: i.v. infusion for 30 minutes
Description: The activity of the products was assessed in experimental animals in accordance with the European Community Standards on the Care and Use of Laboratory Animals and approved by the Animal Care and Use Committee of local authorities. Two experimental models to test antithrombotic activity in rats were used: Arterio-Venous Shunt and Ferric chloride arterial thrombosis model. Additionally, the effect of the products on the systemic blood pressure was investigated. Fasted male Wistar rats (300-320 g; Janvier, Le Genest St. Isle, France) were anesthetized with sodium pentobarbital (60 mg/kg i.p.) and thermoregulated by use of blankets (Biosis homeothermic blanket control unit; Biosis, Spain). A segment (approximately 1-cm long) of the left carotid artery was exposed and fitted at the distal end with an appropriately sized Doppler flow probe. Thrombosis was induced by applying a 70% ferric chloride solution embedded patch onto the artery. Blood flow velocity was measured using a Doppler flowmeter (Transonic Systems, San Diego, Calif.) and data recorded using a system for acquisition of data (Acqk). Blood flow was recorded for 60 min post-lesion. When the flow declined to zero, the time in minutes to thrombus formation was noted. The protocol followed was originally described by Feuerstein G Z, et al Artherioscler. Thromb. Vasc. Biol. 1999, 19: 2554-2562 and modified by Kurz K D, et al Thromb. Res. 1990, 60:269-280. The number of animals presenting no occlusion 30 min post-lesion were also noted. Products were dissolved in saline and were given as an i.v. infusion for 30 minutes. ED50 for each product was calculated and results are shown in Table 1 • Anti-thrombotic effect of compounds compared with reference compound in rat arterial thrombosis model after i.v. administration for 30 minutes.

systemic blood pressure = assay: Effect of nitrosothiols on systemic blood pressure; format: in vivo, male Wistar rats; settings: for Mean arterial pressure, Basal: before initiation of the treatment
Description: Fasted male Wistar rats (300-320 g; Janvier, Le Genest St. Isle, France) were anesthetized with sodium pentobarbitone (60 mg/kg i.p.). The effect of treatments on systemic blood pressure was tested. Products dissolved in saline solution and were infused intravenously for 30 minutes at 0.5 ml/h. […] Basal blood pressure was measured before initiation of the treatment and was recorded throughout the treatment period using a pressure transducer connected to the carotid artery. The change in blood pressure was expressed as a % of change vs. basal values.

[2] = system: thrombus in arterio-venous shunt; assay: Rat arterio-venous shunt silk thread model; format: in vivo, male Wistar rats; settings: rat AV shunt, perfusion 60 minutes
Description: The activity of the products was assessed in experimental animals in accordance with the European Community Standards on the Care and Use of Laboratory Animals and approved by the Animal Care and Use Committee of local authorities. Two experimental models to test antithrombotic activity in rats were used: Arterio-Venous Shunt and Ferric chloride arterial thrombosis model. Additionally, the effect of the products on the systemic blood pressure was investigated. Fasted male Wistar rats (300-320 g; Janvier, Le Genest St. Isle, France) were anesthetized with sodium pentobarbitone (60 mg/kg i.p.). An arterio-venous (AV) shunt was prepared according to the technique of Umetsu and Sanai (1978). Two 12 cm-long polyethylene tubes (0.85- and 1.27-mm i.d. and o.d., respectively) linked to a central part (6 cm-long; 1.14-mm i.d.) containing a 5-cm cotton thread and filled with […]) saline solution were placed between the right carotid artery and the left jugular vein. All products were given i.v through the jugular vein for 60 minutes. Shunt was placed 45 minutes after the initiation of the perfusion with the testing substances and removed at the end of the perfusion i.e. after 15 min of blood circulation. Cotton thread supporting the thrombus was extracted.

intraocular pressure = assay: Alfa-chymotrypsin-induced glaucoma, intraocular pressure; format: in vivo; settings: glaucoma rabbits; for intraocular pressure, 0 hr / intraocular pressure, 1 hr / intraocular pressure, 2 hr: 3 drops instillation
Description: The method used was that described by Gabriele Campana, Claudio Bucolo, Giovanna Murari and Santi Spampinato in Pharmacol. Exp Therap Vol. 303, Issue 3, 1086-1094, December 2002
Animals were injected with intra muscular injection of dexamethasone at the dose rate of 10 mg/Kg body weight, to avoid immediate inflammation. Animals were anesthetized with ketamine (50 mg/kg IV) in combination with Dizepam.
Xylocalne (4%) was used for local anesthesia topically. A cannula attached to reservoir was inserted into the anterior chamber with the help of a 30 gauge needle to provide a hydrostatic pressure of 25 mmHg during injection of alpha-chymotrypsin. Then a second appropriately shaped 30 gauge needle was introduced near the pupil. Freshly prepared 150 units of alpha chymotrypsin prepared in 0.1 ml of sterile saline was irrigated through the cannula into the posterior chamber. Care was taken to prevent the contact of alpha chymotrypsin with corneal stroma. Both cannulas were carefully removed without significant loss of aqueous humor. Immediately after surgery the eye treated with Sofracort (Corticosteroid) to reduce the chances of fungal or microbial infection.
All the animals were kept under observation for 5 days and after these five days the intraocular pressure (IOP) was measured daily with a Schiontz type indentation tonometer using 5.5 gm weights and by compilation of readings the maximum period required to achieve a stable increase in IOP was determined. […] IOP was measured after 15 days for 3 consecutive days, every morning (at same time) to assure stable IOP.
All the animals were closely observed for the development of glaucoma. Thirty animals showing the symptoms of glaucoma and with the intra ocular pressure more than 30 mmHg were selected for the present investigation.
Compound (R,S)-4-(Acetylamino-ethoxycarbonyl-methyl)-1-methyl-4-S-nitroso-mercapto-piperidinium chloride (example 1g) was administered to a group of rabbits at a concentration of 0.05% by weight [0.05 g in 100 mL of saline serum] by 3 drops instillation. For comparative data, the compound Timolol (Timoftol®) widely used for the treatment of glaucoma, was also administered to another group of rabbits at a concentration of 0.5% by weight.
The intraocular pressure measurements are included in the table 2 in mm Hg taken at 0, 1 and 2 h after 3 drops instillation.

[3] = at 4° C., closed glass vial, no longer stable when it loses more than 5% of initial purity (HPLC)
[4] = at 25° C., closed glass vial, no longer stable when it loses more than 5% of initial purity (HPLC)
[5] = anesthetized rat, i.v. infusion 30 min, dose 100 times the antithrombotic ED50
[6] = change vs. basal after 30 min i.v. infusion, dose 100 times the antithrombotic ED50

Compound	time the compound was stable [1, 3]	time the compound was stable [1, 4]	ED50 (anti-thrombotic effect) (arterial thrombosis)	Mean arterial pressure, Basal (systemic blood pressure; anesthetized rat)	Mean arterial pressure, After 30 min infusion (systemic blood pressure; [5])	Mean arterial pressure, Change (systemic blood pressure; [6])	other results
CCOC(=O)[C@@H](NS(=O)(=O)c1ccccc1)C1(SN=O)CCN(C)CC1.Cl (racemic) [Example 7 (hydrochloride salt), (R,S)-4-(Benzenesulfonylamino-ethoxycarbonyl-methyl)-1-methyl-4-S-nitrosomercapto-piperidinium chloride]	> 6 months	at least 4 months	56.4 μg/kg, i.v.	117.9 ± 10.2 mm Hg			Mean arterial pressure, Change (systemic blood pressure; rat, in vivo): +0.8%; Mean arterial pressure, After 30 min infusion (systemic blood pressure; rat, in vivo, iv): 118.8 ± 11.1 mm Hg; Antithrombotic protection ([2]; dose 10.4 μg/kg i.v.): 60%
CCOC(=O)C(NC(C)=O)C1(SN=O)CCN(C)CC1.Cl (racemic) [Example 1g, (R,S)-4-(Acetylamino-ethoxycarbonyl-methyl)-1-methyl-4-S-nitrosomercapto-piperidinium chloride]	more than 10 months	2.5 months	9.1 μg/kg, i.v.	115.7 ± 8.3 mm Hg	113.6 ± 9.2 mm Hg	−1.8%	intraocular pressure, 0 hr (intraocular pressure; 0.05% by weight in saline): 34.33 ± 0.68 mm Hg; intraocular pressure, 1 hr (intraocular pressure; 0.05% by weight in saline): 24.72 ± 0.47 mm Hg; intraocular pressure, 2 hr (intraocular pressure; 0.05% by weight in saline): 23.86 ± 0.32 mm Hg; effect on intraocular pressure (in words) (intraocular pressure; 0.05%, 10-fold lower concentration than Timolol): significantly reduces the intraocular pressure; Antithrombotic protection ([2]; dose 2.0 μg/kg i.v.): 54%
CC(C)(C)NC[C@H](O)COc1nsnc1N1CCOCC1 [Timolol, reference compound]							intraocular pressure, 0 hr (intraocular pressure; 0.5% by weight): 34.45 ± 0.58 mm Hg; intraocular pressure, 1 hr (intraocular pressure; 0.5% by weight): 24.77 ± 0.26 mm Hg; intraocular pressure, 2 hr (intraocular pressure; 0.5% by weight): 24.54 ± 0.26 mm Hg
CC(=O)NC(C(=O)O)C1(SN=O)CCN(C)CC1 (stereo not drawn) [example 2 of EP 1157987, N-acetyl-2-amino-2[4-(4-S-nitrosomercapto-1-methylpiperidin)]acetic acid, reference compound]			4.1 μg/kg, i.v.		95.1 ± 2.4 mm Hg		Antithrombotic protection ([2]; dose 1.7 μg/kg i.v.): 61%
N[C@@H](CCC(=O)N[C@@H](CSN=O)C(=O)NCC(=O)O)C(=O)O [GSNO, S-nitrosoglutathione, reference compound]			18.1 μg/kg, i.v.	112.2 ± 6.2 mm Hg	98.8 ± 4.1 mm Hg	−12.0%	time the compound was stable ([1]; at 25° C., prior art S-nitrothiol compounds, loss of more than 5% of initial purity): 1 days; Antithrombotic protection ([2]; dose 4.0 μg/kg i.v.): 58%
